Key:
NMDA receptor [1] = assay: Anti-NMDA activity: prevention of convulsions and death caused by NMDA injected into the lateral ventricle of the brain; type: in vivo; conditions: mice, i.p. 40 minutes before NMDA 0.1 μg into the lateral ventricle, probit analysis
Procedure: The experiment was conducted in white non-inbred male mice of 20–24 g of weight. A solution of the test agent in 0.2 ml of 5% aqueous dimethylsulfoxide was injected intraperitoneally 40 minutes before the injection of NMDA into the lateral vehicle of the brain. For the mice that had been prepared beforehand for the experiment a skin flap on the head of each mouse was removed under ether anestesia and a hole was bored in the skull by a fine drill. NMDA (0.1 μg) in a volume of 1.4 μl was injected with a microsyringe. The microsyringe needle was immersed to a depth of 2.5 mm. After the operation, the wound was treated with a 2% novocaine solution. […] The accuracy of NMDA injection was monitored by injection of methylene blue. Two to 4 hours after the operation, the mice were used for a pharmacological experiment.
The animals inoculated with a saline solution were used as control.
Each dose of the agent was tested in a croup of 6–8 animals. The ED50 value (the dose of the agent preventing the development of convulsions and the death of 50% of the animals) was determined by a probit-analysis method (Litchfild J. T., Wicoxon F. J.—Pharmacol. Exp. Therap., 1949, v. 96, p. 99–114).

NMDA receptor [2] = conditions: cited from earlier work

Row | Structure (SMILES) | ED50 (dose preventing the development of convulsions and the death of 50% of the animals) (NMDA receptor [1]) | also measured
1 | NC(CCCP(=O)(O)O)C(=O)O (stereo not drawn) [AP-5, 2-amino-5-phosphonovaleric acid] | 190 ± 20 mg/kg | side neurotoxic effect (disturbance of coordination of movement, sedative effect) (NMDA receptor [2]; in the doses that produce the anti-NMDA effect): side neurotoxic effect; ED50, anti-NMDA effect (NMDA receptor [2]; literature value): 190 mg/kg
2 | CN1CCc2[nH]c3ccccc3c2C1 [No. 1, 2-methyl-2,3,4,5-tetrahydro-1H-pyrido[4,3-b]indole] | 30 ± 4 mg/kg | –
3 | Cc1ccc2[nH]c3c(c2c1)CN(C)CC3 [No. 2, 2,8-dimethyl-2,3,4,5-tetrahydro-1H-pyrido[4,3-b]indole] | – | ED50 (dose preventing the development of convulsions and the death of 50% of the animals) (NMDA receptor [1]; listed as 2): 16 ± 4 mg/kg
4 | Cc1ccc2[nH]c3c(c2c1)CN(C)CC3 [No. 3, 2,8-dimethyl-2,3,4,5-tetrahydro-1H-pyrido[4,3-b]indole] | – | ED50 (dose preventing the development of convulsions and the death of 50% of the animals) (NMDA receptor [1]; listed as 3): ~40 mg/kg
5 | CN1CCc2[nH]c3ccc(Br)cc3c2C1 [No. 5, 2-methyl-8-bromo-2,3,4,5-tetrahydro-1H-pyrido[4,3-b]indole] | 29 ± 5 mg/kg | –
6 | CCN1CCc2[nH]c3ccccc3c2C1 [No. 6, 2-ethyl-2,3,4,5-tetrahydro-1H-pyrido[4,3-b]indole] | 45 ± 6 mg/kg | –
7 | c1ccc(CN2CCc3[nH]c4ccccc4c3C2)cc1 [No. 7, 2-benzyl-2,3,4,5-tetrahydro-1H-pyrido[4,3-b]indole] | 43 ± 5 mg/kg | –
8 | Cc1ccc2c(c1)c1c(n2Cc2ccccc2)CCN(C)C1 [No. 8, 2,8-dimethyl-5-benzyl-2,3,4,5-tetrahydro-1H-pyrido[4,3-b]indole] | 45 ± 5 mg/kg | –
9 | Cc1ccc(CCn2c3c(c4ccccc42)CN(C)CC3)cn1 [No. 9, 2-methyl-5-[2-(6-methyl-3-pyridyl)ethyl]-2,3,4,5-tetrahydro-1H-pyrido[4,3-b]indole] | 22 ± 4 mg/kg | –
10 | Cl.Nc1c2c(nc3ccccc13)CCCC2 [Tacrine, 9-amino-1,2,3,4-tetrahydroacridine hydrochloride, reference compound] | not active | –

Reference: US7071206B2, “Agents for treating neurodegenerative disorders” (Medivation, Inc., priority 1995, dated 2006)
